For 31 compounds, Ki and IC50 results are on record in patent US9079866B2, “Flap modulators” (JANSSEN PHARMACEUTICA NV, priority 2013, dated 2015).

For assay [1], the target named is human FLAP (Homo sapiens (Human), UniProt P20292). Put plainly: FLAP binding assay (HTRF format). Summed up:
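HTRF ratio read-out; two independent plates, samples in duplicate on each, values averaged across plates.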
Background: Time-resolved FRET reads energy transfer from a long-lived donor to a nearby acceptor.

Assay [2] concerns leukotriene pathway in human whole blood (LTB4 levels). Put plainly: Human whole blood assay (A23187-stimulated LTB4). The assay is classed as cell-based. The settings on record: Homo sapiens, read-out: LTB4 IC50 1:1. Summed up: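 Blood (heparin) diluted 1:1 RPMI; compound pre-incubation 15 min, 37° Celsius; A23187 7 μg/mL, 30 min, 37° Celsius; plasma LTB4 by commercial kit. IC50 via 4-parameter equation.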

Setting [3] is: human whole blood diluted 1:1, A23187-stimulated.
Setting [4] is: human FLAP wild type, HTRF format, average of two plates, duplicates.
[5] abbreviates: human whole blood diluted 1:1 in RPMI, A23187-stimulated LTB4.

Where a name gives a salt, the structure may show the parent alone. Read-outs that look alike come from different tables or passages of the source.

Sequence of human FLAP (P20292 whole entry): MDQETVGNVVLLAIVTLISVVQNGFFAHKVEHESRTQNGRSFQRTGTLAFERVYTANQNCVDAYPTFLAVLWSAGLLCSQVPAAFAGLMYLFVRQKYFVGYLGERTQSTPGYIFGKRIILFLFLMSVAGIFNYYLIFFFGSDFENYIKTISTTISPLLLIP

Broadly, the Ki is the equilibrium dissociation constant of an inhibitor or competing ligand from its target. In general, IC50 refers to the point on the concentration scale where inhibition reaches its midpoint. As to `CC(C)CS(=O)(=O)N(C)c1ccccc1-c1ccc(-c2cnc(N)cn2)c(F)c1` [Example 497, N-[4′-(5-Aminopyrazin-2-yl)-3′-fluorobiphenyl-2-yl]-N,2-dimethylpropane-1-sulfonamide], affinity in assay [1] (wild type FLAP, HTRF format) was put at a Ki of 25 nM. The IC50 in assay [2] (setting [3]) is 510 nM.
In the case of `Cc1cnc(NS(=O)(=O)c2ccccc2-c2ccc(-c3cnc(N)cn3)c(F)c2)cn1` [Example 167, 4′-(5-Aminopyrazin-2-yl)-3′-fluoro-N-(5-methylpyrazin-2-yl)biphenyl-2-sulfonamide], in assay [1] (setting [4]), the Ki turned out to be 47 nM. Further, the IC50 in assay [2] (setting [5]) came to 442 nM.
For `Nc1ncc(-c2ccc(-c3ccccc3S(=O)(=O)CCCn3c(=O)[nH]c4ccccc43)cc2F)cn1` [Example 318, 1-(3-((4′-(2-Aminopyrimidin-5-yl)-3′-fluoro-[1,1′-biphenyl]-2-yl)sulfonyl)propyl)-1H-benzo[d]imidazol-2(3H)-one], in that order: 689 nM and 2000 nM.
`N#Cc1nc(N)cnc1-c1ccc(-c2ccccc2S(=O)(=O)N2CCS(=O)(=O)CC2)cc1F` [Example 704, 6-Amino-3-{2′-[(1,1-dioxidothiomorpholin-4-yl)sulfonyl]-3-fluorobiphenyl-4-yl}pyrazine-2-carbonitrile]: in assay [1] (wild type FLAP, HTRF format), the affinity corresponds to a Ki of 102 nM. The IC50 in assay [2] (setting [3]) turned out to be 191 nM.
On to `N#Cc1cc(C(F)(F)F)ccc1-c1ccc(-c2cnc(N)cn2)c(F)c1` [Example 563, 4′-(5-Aminopyrazin-2-yl)-3′-fluoro-4-(trifluoromethyl)biphenyl-2-carbonitrile], for which the affinity in assay [1] (wild type FLAP, HTRF format), expressed as Ki, was 20 nM. Further, the IC50 in assay [2] (setting [3]) was 328 nM.
For `COc1cnc(Oc2ccccc2-c2ccc(-c3cnc(N)cn3)c(F)c2)nc1` [Example 549, 5-{3-Fluoro-2′-[(5-methoxypyrimidin-2-yl)oxy]biphenyl-4-yl}pyrazin-2-amine], in that order: 9 nM and 123 nM.
`C[C@@H](NC(=O)c1ccccc1-c1ccc(-c2cnc(N)cn2)c(F)c1)C(F)(F)F` [Example 511, 4′-(5-Aminopyrazin-2-yl)-3′-fluoro-N-[(1R)-2,2,2-trifluoro-1-methylethyl]biphenyl-2-carboxamide] returned a Ki in assay [1] (wild type FLAP, HTRF format) of 213 nM. Further, the concentration for half-maximal inhibition (IC50) in assay [2] (setting [3]) came out at 323 nM.
As for `Nc1cnc(-c2ccc(-c3ccccc3S(=O)(=O)C3CCS(=O)(=O)CC3)cc2F)cn1` [Example 241, 5-{2′-[(1,1-Dioxidotetrahydro-2H-thiopyran-4-yl)sulfonyl]-3-fluorobiphenyl-4-yl}pyrazin-2-amine], the Ki in assay [1] (setting [4]) is 15 nM. Also, the IC50 in assay [2] (setting [5]) was 61 nM.
With `Nc1cnc(-c2ccc(-c3ccccc3S(=O)(=O)N3CCCC(N)C3)cc2F)cn1` (racemic) [Example 74, racemic 5-{2′-[(3-Aminopiperidin-1-yl)sulfonyl]-3-fluorobiphenyl-4-yl}pyrazin-2-amine], the Ki in assay [1] (setting [4]) was found to be 6 nM. The IC50 in assay [2] (setting [5]) amounted to 61 nM.
In the case of `C[C@H](O)CNS(=O)(=O)c1ccccc1-c1ccc(-c2cnc(N)cn2)c(F)c1` [Example 98, (S)-4′-(5-aminopyrazin-2-yl)-3′-fluoro-N-(2-hydroxypropyl)-[1,1′-biphenyl]-2-sulfonamide], the Ki in assay [1] (setting [4]) stood at 8 nM. In addition, the IC50 in assay [2] (setting [5]) came to 39 nM.
For `C[C@@H](CO)NS(=O)(=O)c1ccccc1-c1ccc(-c2cnc(N)nc2)c(F)c1` [Example 286, 4′-(2-Aminopyrimidin-5-yl)-3′-fluoro-N-[(1S)-2-hydroxy-1-methylethyl]biphenyl-2-sulfonamide trifluoroacetic acid salt] the same measures were 142 nM and 206 nM.
`CC(C)CNS(=O)(=O)c1ccccc1-c1ccc(-c2cnc(N)cn2)c(F)c1` [Example 7, 4′-(5-Aminopyrazin-2-yl)-3′-fluoro-N-(2-methylpropyl)biphenyl-2-sulfonamide] came in with a Ki in assay [1] (setting [4]) of 2 nM. Moreover, the IC50 in assay [2] (setting [5]) is 14 nM.
In assay [1] (wild type FLAP, HTRF format), `CSc1ccccc1-c1ccc(-c2cnc(N)cn2)c(F)c1` [Example 474, 5-[3-Fluoro-2′-(methylsulfanyl)biphenyl-4-yl]pyrazin-2-amine] showed a Ki of 21 nM. Besides, the IC50 in assay [2] (setting [3]) was found to be 2650 nM.
Regarding `CC(C)(C)NS(=O)(=O)c1ccccc1-c1ccc(-c2ccc(N)nc2C#N)c(F)c1` [Example 437, 4′-(6-Amino-2-cyanopyridin-3-yl)-N-(tert-butyl)-3′-fluoro-[1,1′-biphenyl]-2-sulfonamide], in assay [1] (wild type FLAP, HTRF format), the Ki amounted to 23 nM. The IC50 in assay [2] (setting [3]) came to 381 nM.
Consider `Nc1cnc(-c2ccc(-c3ccc(C(F)(F)F)cc3CNCCO)cc2F)cn1` [Example 607, 2-({[4′-(5-Aminopyrazin-2-yl)-3′-fluoro-4-(trifluoromethyl)biphenyl-2-yl]methyl}amino)ethanol], for which, in assay [1] (wild type FLAP, HTRF format), the Ki worked out at 138 nM. Besides, the IC50 in assay [2] (setting [3]) is 152 nM.
For `CCS(=O)(=O)Cc1ccccc1-c1ccc(-c2cnc(N)cn2)c(F)c1` [Example 749, 5-{2′-[(Ethylsulfonyl)methyl]-3-fluorobiphenyl-4-yl}pyrazin-2-amine hydrogen chloride salt], the Ki in assay [1] (read-out: FLAP Binding wild type HTRF Ki) was 246 nM. Moreover, the IC50 in assay [2] (setting [3]) is 468 nM.
As for `Nc1ccc(-c2ccc(-c3ccccc3S(=O)(=O)N3CCCCC3)cc2F)cn1` [Example 345, 5-(3-Fluoro-2′-(piperidin-1-ylsulfonyl)-[1,1′-biphenyl]-4-yl)pyridin-2-amine], the Ki in assay [1] (setting [4]) turned out to be 28 nM. Moreover, in assay [2] (setting [5]), the IC50 was 259 nM.
For `O=C(c1ccccc1-c1ccc(-c2cnc3[nH]ccc3c2)c(F)c1)N1CCOCC1` [Example 498, 5-[3-Fluoro-2′-(morpholin-4-ylcarbonyl)biphenyl-4-yl]-1H-pyrrolo[2,3-b]pyridine], the affinity in assay [1] (wild type FLAP, HTRF format), expressed as Ki, was 16 nM. In assay [2] (setting [3]), the IC50 stood at 111 nM.
In assay [1] (setting [4]), `Nc1cnc(-c2ccc(-c3ccccc3S(=O)(=O)N3CCN(C4CC4)CC3)cc2F)cn1` [Example 60, 5-{2′-[(4-Cyclopropylpiperazin-1-yl)sulfonyl]-3-fluorobiphenyl-4-yl}pyrazin-2-amine] registered a Ki of 28 nM. The IC50 in assay [2] (setting [5]) amounted to 464 nM.
Consider `CN(C)S(=O)(=O)c1ccccc1-c1ccc(-c2cnc(N)cn2)c(F)c1` [Example 42, 4′-(5-Aminopyrazin-2-yl)-3′-fluoro-N,N-dimethylbiphenyl-2-sulfonamide], for which the Ki in assay [1] (setting [4]) turned out to be 11 nM. Also, the IC50 in assay [2] (setting [5]) came out at 149 nM.
For `Nc1cnc(-c2ccc(-c3ccccc3S(=O)(=O)N3CC[C@H](CO)C3)cc2F)cn1` [Example 112, (S)-(1-{[4′-(5-Aminopyrazin-2-yl)-3′-fluorobiphenyl-2-yl]sulfonyl}pyrrolidin-3-yl)methanol], in that order: 7 nM and 154 nM.
Consider `C[Si](C)(C)CCOCSc1ccccc1-c1ccc(-c2cnc(N)cn2)c(F)c1` [Example 244, 5-[3-Fluoro-2′-({[2-(trimethylsilyl)ethoxy]methyl}sulfanyl)biphenyl-4-yl]pyrazin-2-amine], for which the Ki in assay [1] (setting [4]) is 29 nM. Besides, in assay [2], the IC50 came out at 211 nM.
For the compound `CC(C)(C)NS(=O)(=O)c1ccccc1-c1ccc(-c2ccn3cnnc3c2)c(F)c1` [Example 444, N-tert-Butyl-3′-fluoro-4′-[1,2,4]triazolo[4,3-a]pyridin-7-ylbiphenyl-2-sulfonamide], the Ki in assay [1] (wild type FLAP, HTRF format) is 183 nM. For the same compound, the IC50 in assay [2] (setting [3]) was greater than 10000 nM.
Compound `N#Cc1nc(-c2ccc(-c3ccccc3S(=O)(=O)C3CC3)cc2F)cnc1N` [Example 411, 3-Amino-6-[2′-(cyclopropylsulfonyl)-3-fluorobiphenyl-4-yl]pyrazine-2-carbonitrile] yielded a Ki in assay [1] (wild type FLAP, HTRF format) of 36 nM. For the same compound, the IC50 in assay [2] (setting [3]) is 1970 nM.
In assay [1] (setting [4]), `C[C@@H](CO)NS(=O)(=O)Cc1ccccc1-c1ccc(-c2cnc(N)cn2)c(F)c1` [Example 224, (S)-1-(4′-(5-Aminopyrazin-2-yl)-3′-fluoro-[1,1′-biphenyl]-2-yl)-N-(1-hydroxypropan-2-yl)-methanesulfonamide] gave a Ki of 293 nM. Further, the IC50 in assay [2] (setting [5]) came out at 516 nM.
Regarding `Cc1cc(C)nc(Oc2ccccc2-c2ccc(-c3cnc(N)nc3)c(F)c2)n1` [Example 609, 5-{2′-[(4,6-Dimethylpyrimidin-2-yl)oxy]-3-fluorobiphenyl-4-yl}pyrimidin-2-amine], the inhibition constant Ki in assay [1] (wild type FLAP, HTRF format) came out at 246 nM. In addition, the IC50 in assay [2] (setting [3]) was determined as 768 nM.
For the compound `CC(C)S(=O)(=O)Nc1ccccc1-c1ccc(-c2cnc(N)cn2)c(F)c1` [Example 34, N-(4′-(5-Aminopyrazin-2-yl)-3′-fluoro-[1,1′-biphenyl]-2-yl)propane-2-sulfonamide], affinity in assay [1] (setting [4]) was put at a Ki of 31 nM. In assay [2] (setting [5]), the IC50 is 334 nM.
In assay [1] (wild type FLAP, HTRF format), `Nc1cnc(-c2ccc(-c3ccccc3Sc3cncc(N)n3)cc2F)cn1` [Example 742, 5-{2′-[(6-Aminopyrazin-2-yl)sulfanyl]-3-fluorobiphenyl-4-yl}pyrazin-2-amine] showed a Ki of 2.9 nM. In addition, the IC50 in assay [2] (setting [3]) amounted to 25.7 nM.
In assay [1] (setting [4]), `Nc1ncc(-c2ccc(-c3ccccc3S(=O)(=O)N[C@H]3CC[C@H](O)CC3)cc2F)cn1` [Example 262, 4′-(2-Aminopyrimidin-5-yl)-3′-fluoro-N-(trans-4-hydroxycyclohexyl)biphenyl-2-sulfonamide] gave a Ki of 18 nM. Also, the IC50 in assay [2] (setting [5]) turned out to be 46 nM.
With `Nc1cnc(-c2ccc(-c3ccc(C(F)(F)F)cc3S(=O)(=O)N3CCNC(=O)C3)cc2F)cn1` [Example 209, 4-{[4′-(5-Aminopyrazin-2-yl)-3′-fluoro-4-(trifluoromethyl)biphenyl-2-yl]sulfonyl}piperazin-2-one], in assay [1] (setting [4]), affinity was put at a Ki of 1 nM. The IC50 in assay [2] (setting [5]) stood at 34 nM.
For `Nc1cnc(-c2ccc(-c3ccccc3S(=O)(=O)N[C@@H](CO)[C@@H](O)c3ccccc3)cc2F)cn1` [Example 78, 4′-(5-Aminopyrazin-2-yl)-3′-fluoro-N-[(1S,2S)-2-hydroxy-1-(hydroxymethyl)-2-phenylethyl]biphenyl-2-sulfonamide], in assay [1] (setting [4]), the affinity, expressed as Ki, was 1 nM. Besides, the IC50 in assay [2] (setting [5]) was determined as 166 nM.
